Results as given in patent US7396837B2, “Antitumoral analogs of lamellarins” (Pharma Mar, S.A.U., priority 2002, dated 2008).
Where two headings read alike, the source gives them in different places.

What was measured:
Format in all cases: cell-based
SKOV-3 = assay: SRB colorimetric cell growth inhibition assay, SKOV-3; settings: Homo sapiens
Text: (§1) Inhibition of Cell Growth by Colorimetric Assay.
(§2) A colorimetric type of assay, using sulforhodamine B (SRB) reaction has been adapted for a quantitative measurement of cell growth and viability (following the technique described by P. A. Skehan, et al., J. Natl. Cancer Inst. 1990, 82, 1107-1112).
(§3) This form of assay employs 96 well cell culture microplates of 9 mm diameter (T. Mosmann et al., J. of Immunological Methods 1983, 65, 55-63; G. T. Faircloth et al., J. of Tissue and Culture Methods 1988, 11, 201-205).
(§4) Most of the cell lines are obtained from American Type Culture Collection (ATCC) derived from different human cancer types.
(§5) The values for mean +/− SD of data from triplicate wells are calculated. Some parameters for cellular responses can be calculated: GI=growth inhibition, TGI=total growth inhibition (cytostatic effect) and LC=cell killing (cytotoxic effect).

SK-BR-3 = assay: SRB colorimetric cell growth inhibition assay, SK-BR-3; settings: Homo sapiens, SK-BR-3, SK-BR-3
Method in brief: (§6)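 Growth inhibition (GI), cytostatic total growth inhibition (TGI) and cytotoxic cell-kill (LC) parameters were calculated from SRB-stained cultures held under constant compound exposure, triplicates averaged.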

A-549 = assay: SRB colorimetric cell growth inhibition assay, A-549; settings: for GI50: GI=growth inhibition, read-out: GI50 A-549; for CC50: LC=cell killing (cytotoxic effect); for IC (TGI): TGI=total growth inhibition (cytostatic effect), read-out: TGI A-549
Method in brief: as §6

HT-29 = assay: SRB colorimetric cell growth inhibition assay, HT-29; settings: Homo sapiens; for CC50: LC=cell killing (cytotoxic effect); for IC (TGI): TGI=total growth inhibition (cytostatic effect), read-out: TGI HT-29
Method in brief: as §6

IGROV-ET = assay: SRB colorimetric cell growth inhibition assay, IGROV-ET (ET-743 resistant); settings: Homo sapiens; for CC50: LC=cell killing (cytotoxic effect)
Method in brief: as §6

PANC-1 = assay: SRB colorimetric cell growth inhibition assay, PANC-1; settings: Homo sapiens; for CC50: LC=cell killing (cytotoxic effect)
Method in brief: as §6

DU-145 = assay: SRB colorimetric cell growth inhibition assay, DU-145; settings: Homo sapiens, DU-145, DU-145
Method in brief: as §6

LNCaP = assay: SRB colorimetric cell growth inhibition assay, LNCaP; settings: Homo sapiens, LNCaP, LN-caP
Method in brief: as §6

K-562 = assay: SRB colorimetric cell growth inhibition assay, K-562; settings: Homo sapiens, K562, K-562
Method in brief: as §6

LoVo-Dox = assay: SRB colorimetric cell growth inhibition assay, LoVo-Dox (MDR)
Method in brief: as §6

IGROV = assay: SRB colorimetric cell growth inhibition assay, IGROV; settings: Homo sapiens, IGROV
Method in brief: as §6

LoVo = assay: SRB colorimetric cell growth inhibition assay, LoVo; settings: Homo sapiens; for CC50: LC=cell killing (cytotoxic effect); for IC (TGI): TGI=total growth inhibition (cytostatic effect), read-out: TGI LOVO
Method in brief: as §6

SK-MEL-28 = assay: SRB colorimetric cell growth inhibition assay, SK-MEL-28
Method in brief: as §6

H-MEC-1 = assay: SRB colorimetric cell growth inhibition assay, H-MEC-1; settings: Homo sapiens, TGI=total growth inhibition (cytostatic effect)
Text: as §1, §2, §3, §4, §5

[1] = Homo sapiens, LOVO-DOX; TGI=total growth inhibition (cytostatic effect); read-out: TGI LOVO-DOX
[2] = Homo sapiens, SK-MEL-28, MEL-28; TGI=total growth inhibition (cytostatic effect); read-out: TGI MEL-28

SMILES: COc1cc(-c2c3n(c4c(=O)oc5cc(OC(=O)[C@H](C)N)c(OC)cc5c24)CCc2cc(OC(=O)[C@H](C)N)c(OC)cc2-3)ccc1OC(=O)[C@H](C)N [Compound 42]
- GI50 (SKOV-3; SK-OV-3, SKOV-3, GI=growth inhibition, read-out: GI50 SKOV-3): 1.24 µM
- CC50 (SKOV-3; SK-OV-3, SKOV-3, LC=cell killing (cytotoxic effect), read-out: LC50 SKOV-3): 9.46 µM
- IC (TGI) (SKOV-3; SK-OV-3, SKOV-3, TGI=total growth inhibition (cytostatic effect), read-out: TGI SKOV-3): 4.44 µM
- GI50 (SK-BR-3; GI=growth inhibition, read-out: GI50 SK-BR-3): 2 µM
- CC50 (SK-BR-3; LC=cell killing (cytotoxic effect), read-out: LC50 SK-BR-3): 8.04 µM
- IC (TGI) (SK-BR-3; TGI=total growth inhibition (cytostatic effect), read-out: TGI SK-BR-3): 4.01 µM
- GI50 (A-549; Homo sapiens, A549, A-549): 0.735 µM
- CC50 (A-549; Homo sapiens, A549, A-549, read-out: LC50 A-549): 9.46 µM
- IC (TGI) (A-549; Homo sapiens, A549, A-549): 2.99 µM
- GI50 (HT-29; HT-29, HT-29, GI=growth inhibition, read-out: GI50 HT-29): 3.91 µM
- CC50 (HT-29; HT-29, HT-29, read-out: LC50 HT-29): 9.46 µM
- IC (TGI) (HT-29; HT-29, HT-29): 9.46 µM
- GI50 (IGROV-ET; IGROV-ET, GI=growth inhibition, read-out: GI50 IGROV-ET): 0.238 µM
- CC50 (IGROV-ET; IGROV-ET, read-out: LC50 IGROV-ET): 6.62 µM
- IC (TGI) (IGROV-ET; IGROV-ET, TGI=total growth inhibition (cytostatic effect), read-out: TGI IGROV-ET): 0.678 µM
- GI50 (PANC-1; PANC-1, PANC-1, GI=growth inhibition, read-out: GI50 PANC-1): 0.732 µM
- CC50 (PANC-1; PANC-1, PANC-1, read-out: LC50 PANC-1): 9.46 µM
- IC (TGI) (PANC-1; PANC-1, PANC-1, TGI=total growth inhibition (cytostatic effect), read-out: TGI PANC-1): 4.06 µM
- GI50 (DU-145; GI=growth inhibition, read-out: GI50 DU-145): 0.365 µM
- CC50 (DU-145; LC=cell killing (cytotoxic effect), read-out: LC50 DU-145): 9.46 µM
- IC (TGI) (DU-145; TGI=total growth inhibition (cytostatic effect), read-out: TGI DU-145): 2.28 µM
- GI50 (LNCaP; GI=growth inhibition, read-out: GI50 LN-caP): 0.377 µM
- CC50 (LNCaP; LC=cell killing (cytotoxic effect), read-out: LC50 LN-caP): 4.91 µM
- IC (TGI) (LNCaP; TGI=total growth inhibition (cytostatic effect), read-out: TGI LN-caP): 1.41 µM
- GI50 (K-562; GI=growth inhibition, read-out: GI50 K-562): 0.313 µM
- CC50 (K-562; LC=cell killing (cytotoxic effect), read-out: LC50 K-562): 5.42 µM
- IC (TGI) (K-562; TGI=total growth inhibition (cytostatic effect), read-out: TGI K-562): 1.79 µM
- GI50 (LoVo-Dox; Homo sapiens, LOVO-DOX; GI=growth inhibition; read-out: GI50 LOVO-DOX): 0.395 µM
- CC50 (LoVo-Dox; Homo sapiens, LOVO-DOX; LC=cell killing (cytotoxic effect); read-out: LC50 LOVO-DOX): 9.46 µM
- IC (TGI) (LoVo-Dox; [1]): 2.32 µM
- GI50 (IGROV; GI=growth inhibition, read-out: GI50 IGROV): 0.185 µM
- CC50 (IGROV; LC=cell killing (cytotoxic effect), read-out: LC50 IGROV): 2.83 µM
- IC (TGI) (IGROV; TGI=total growth inhibition (cytostatic effect), read-out: TGI IGROV): 0.56 µM
- GI50 (LoVo; LoVo, GI=growth inhibition, read-out: GI50 LOVO): 0.463 µM
- CC50 (LoVo; LoVo, read-out: LC50 LOVO): 9.46 µM
- IC (TGI) (LoVo; LoVo): 3.63 µM
- GI50 (SK-MEL-28; Homo sapiens, SK-MEL-28, MEL-28; GI=growth inhibition; read-out: GI50 MEL-28): 1.23 µM
- CC50 (SK-MEL-28; Homo sapiens, SK-MEL-28, MEL-28; LC=cell killing (cytotoxic effect); read-out: LC50 MEL-28): 8.94 µM
- IC (TGI) (SK-MEL-28; [2]): 3.32 µM

SMILES: COc1cc(-c2c3n(c4c(=O)oc5cc(OC(=O)[C@H](C)NC(=O)OC(C)(C)C)c(OC)cc5c24)CCc2c-3cc(OC)c(OC)c2OC(=O)[C@H](C)NC(=O)OC(C)(C)C)ccc1OC(=O)[C@H](C)NC(=O)OC(C)(C)C [Compound 46]
- IC (TGI) (H-MEC-1; HMEC-1, read-out: TGI H-MEC-1, H-MEC-1): 9.57 µM
- IC (TGI) (H-MEC-1; HMEC-1, H-MEC-1, read-out: TGI H-MEC-1): 0.000847 µM
- CC50 (SKOV-3; SK-OV-3, read-out: LC50 SKOV-3): 9.57 µM
- GI50 (A-549; A-549): 2.33 µM
- GI50 (A-549; Homo sapiens, A549, A-549): 1.31 µM
- IC (TGI) (A-549; Homo sapiens, A549, A-549): 9.57 µM
- CC50 (A-549; Homo sapiens, A549, read-out: LC50 A-549, A-549): 9.57 µM
- CC50 (HT-29; HT-29, read-out: LC50 HT-29, HT-29): 9.57 µM
- IC (TGI) (HT-29; HT-29): 9.57 µM
- CC50 (IGROV-ET; read-out: LC50 IGROV-ET, IGROV-ET): 9.57 µM
- CC50 (PANC-1; PANC-1, read-out: LC50 PANC-1, PANC-1): 9.57 µM
- IC (TGI) (LoVo-Dox; [1]): 0.0957 µM
- CC50 (LoVo-Dox; Homo sapiens, read-out: LC50 LOVO-DOX, LOVO-DOX; LC=cell killing (cytotoxic effect)): 9.57 µM
- IC (TGI) (LoVo-Dox; Homo sapiens; LOVO-DOX; TGI=total growth inhibition (cytostatic effect); read-out: TGI LOVO-DOX): 9.57 µM
- CC50 (LoVo; LoVo, read-out: LC50 LOVO, LOVO): 9.57 µM
- IC (TGI) (LoVo; LoVo): 0.00932 µM
- IC (TGI) (LoVo; LOVO): 9.57 µM
- IC (TGI) (SK-MEL-28; [2]): 0.00417 µM
- IC (TGI) (SK-MEL-28; Homo sapiens, SK-MEL-28; MEL-28; TGI=total growth inhibition (cytostatic effect); read-out: TGI MEL-28): 9.57 µM
